Laboratory results taken from PubChem BioAssay AID1259407 (Chemical Carcinogenesis Research Information System (CCRIS), 2018).
The source made the active and inactive calls. How the calls were made is not given here.

Test system: CCRIS mutagenicity, Ames/micronucleus/aberration tests
Assay: CCRIS mutagenicity studies
[1] = Test System: AMES SALMONELLA TYPHIMURIUM, Strain/Indicator: TA98, Metabolic Activation: NONE, Method: PREINCUBATION
[2] = Test System: AMES SALMONELLA TYPHIMURIUM, Strain/Indicator: TA98, Metabolic Activation: NONE, Method: STANDARD PLATE
[3] = Test System: AMES SALMONELLA TYPHIMURIUM, Strain/Indicator: TA100, Metabolic Activation: NONE, Method: PREINCUBATION
[4] = Test System: AMES SALMONELLA TYPHIMURIUM, Strain/Indicator: TA100, Metabolic Activation: NONE, Method: STANDARD PLATE
[5] = Test System: AMES SALMONELLA TYPHIMURIUM, Strain/Indicator: TA1535, Metabolic Activation: NONE, Method: STANDARD PLATE
[6] = Test System: AMES SALMONELLA TYPHIMURIUM, Strain/Indicator: TA1535, Metabolic Activation: NONE, Method: PREINCUBATION

SMILES: CCOP(=S)(OCC)SCSCC
- mutagenic call (Test System: AMES SALMONELLA TYPHIMURIUM, Strain/Indicator: TA97A, Metabolic Activation: NONE, Method: STANDARD PLATE): inactive; negative
- mutagenic call (Test System: AMES SALMONELLA TYPHIMURIUM, Strain/Indicator: TA97A, Metabolic Activation: PLANT, HOMOGENATE, S-14, Method: STANDARD PLATE): inactive; negative
- mutagenic call (Test System: AMES SALMONELLA TYPHIMURIUM, Strain/Indicator: TA97A, Metabolic Activation: S-9, Method: STANDARD PLATE): inactive; negative
- mutagenic call [1]: inactive; negative
- mutagenic call [2]: inactive; negative
- mutagenic call (Test System: AMES SALMONELLA TYPHIMURIUM, Strain/Indicator: TA98, Metabolic Activation: PLANT, HOMOGENATE, S-14, Method: STANDARD PLATE): inactive; negative
- mutagenic call (Test System: AMES SALMONELLA TYPHIMURIUM, Strain/Indicator: TA98, Metabolic Activation: S-9, Method: STANDARD PLATE): inactive; negative
- mutagenic call [3]: inactive; negative
- mutagenic call [4]: inactive; negative
- mutagenic call (Test System: AMES SALMONELLA TYPHIMURIUM, Strain/Indicator: TA100, Metabolic Activation: PLANT, HOMOGENATE, S-14, Method: STANDARD PLATE): inactive; negative
- mutagenic call (Test System: AMES SALMONELLA TYPHIMURIUM, Strain/Indicator: TA100, Metabolic Activation: S-9, Method: STANDARD PLATE): inactive; negative
- mutagenic call [5]: inactive; negative
- mutagenic call (Test System: AMES SALMONELLA TYPHIMURIUM, Strain/Indicator: TA1535, Metabolic Activation: PLANT, HOMOGENATE, S-14, Method: STANDARD PLATE): inactive; negative
- mutagenic call (Test System: AMES SALMONELLA TYPHIMURIUM, Strain/Indicator: TA1535, Metabolic Activation: S-9, Method: STANDARD PLATE): inactive; negative

SMILES: Nc1cc(S(=O)(=O)O)c2cccc(S(=O)(=O)O)c2c1
- mutagenic call [1]: inactive; negative
- mutagenic call (Test System: AMES SALMONELLA TYPHIMURIUM, Strain/Indicator: TA98, Metabolic Activation: RAT LIVER S-9, PHENOBARBITAL AND BETA-NAPHTHOFLAVONE, Method: PREINCUBATION): inactive; negative
- mutagenic call [3]: inactive; negative
- mutagenic call (Test System: AMES SALMONELLA TYPHIMURIUM, Strain/Indicator: TA100, Metabolic Activation: RAT LIVER S-9, PHENOBARBITAL AND BETA-NAPHTHOFLAVONE, Method: PREINCUBATION): inactive; negative
- mutagenic call [6]: inactive; negative
- mutagenic call (Test System: AMES SALMONELLA TYPHIMURIUM, Strain/Indicator: TA1535, Metabolic Activation: RAT LIVER S-9, PHENOBARBITAL AND BETA-NAPHTHOFLAVONE, Method: PREINCUBATION): inactive; negative
- mutagenic call (Test System: AMES SALMONELLA TYPHIMURIUM, Strain/Indicator: TA1537, Metabolic Activation: NONE, Method: PREINCUBATION): inactive; negative
- mutagenic call (Test System: AMES SALMONELLA TYPHIMURIUM, Strain/Indicator: TA1537, Metabolic Activation: RAT LIVER S-9, PHENOBARBITAL AND BETA-NAPHTHOFLAVONE, Method: PREINCUBATION): inactive; negative
- mutagenic call (Test System: AMES SALMONELLA TYPHIMURIUM, Strain/Indicator: TA1538, Metabolic Activation: NONE, Method: PREINCUBATION): inactive; negative
- mutagenic call (Test System: AMES SALMONELLA TYPHIMURIUM, Strain/Indicator: TA1538, Metabolic Activation: RAT LIVER S-9, PHENOBARBITAL AND BETA-NAPHTHOFLAVONE, Method: PREINCUBATION): inactive; negative
- mutagenic call (Test System: E.COLI, Strain/Indicator: WP2UVRA, Metabolic Activation: NONE, Method: PREINCUBATION): inactive; negative
- mutagenic call (Test System: E.COLI, Strain/Indicator: WP2UVRA, Metabolic Activation: RAT LIVER S-9, PHENOBARBITAL AND BETA-NAPHTHOFLAVONE, Method: PREINCUBATION): inactive; negative

SMILES: COc1nncc2cccnc12
- mutagenic call [1]: inactive; negative
- mutagenic call (Test System: AMES SALMONELLA TYPHIMURIUM, Strain/Indicator: TA98, Metabolic Activation: RAT, LIVER, S-9, PCB, Method: PREINCUBATION): inactive; negative
- mutagenic call [3]: inactive; negative
- mutagenic call (Test System: AMES SALMONELLA TYPHIMURIUM, Strain/Indicator: TA100, Metabolic Activation: RAT, LIVER, S-9, PCB, Method: PREINCUBATION): inactive; negative

SMILES: O=c1c(Cl)c(Cl)cnn1S(=O)(=O)c1ccc(Cl)cc1Cl
- mutagenic call [2]: inactive; negative
- mutagenic call (Test System: AMES SALMONELLA TYPHIMURIUM, Strain/Indicator: TA98, Metabolic Activation: RAT, LIVER, S-9, AROCLOR 1254, Method: STANDARD PLATE): inactive; negative
- mutagenic call [4]: inactive; negative
- mutagenic call (Test System: AMES SALMONELLA TYPHIMURIUM, Strain/Indicator: TA100, Metabolic Activation: RAT, LIVER, S-9, AROCLOR 1254, Method: STANDARD PLATE): inactive; negative
- mutagenic call [5]: inactive; negative
- mutagenic call (Test System: AMES SALMONELLA TYPHIMURIUM, Strain/Indicator: TA1535, Metabolic Activation: RAT, LIVER, S-9, AROCLOR 1254, Method: STANDARD PLATE): inactive; negative
- mutagenic call (Test System: AMES SALMONELLA TYPHIMURIUM, Strain/Indicator: TA1537, Metabolic Activation: NONE, Method: STANDARD PLATE): inactive; negative
- mutagenic call (Test System: AMES SALMONELLA TYPHIMURIUM, Strain/Indicator: TA1537, Metabolic Activation: RAT, LIVER, S-9, AROCLOR 1254, Method: STANDARD PLATE): inactive; negative

SMILES: CC(=O)Nc1cccc(N)c1
- mutagenic call (Test System: AMES SALMONELLA TYPHIMURIUM, Strain/Indicator: TA97, Metabolic Activation: HAMSTER, LIVER, S-9, AROCLOR 1254 (10%), Method: PREINCUBATION): active; positive
- mutagenic call (Test System: AMES SALMONELLA TYPHIMURIUM, Strain/Indicator: TA97, Metabolic Activation: NONE, Method: PREINCUBATION): inactive; negative
- mutagenic call (Test System: AMES SALMONELLA TYPHIMURIUM, Strain/Indicator: TA97, Metabolic Activation: RAT, LIVER, S-9, AROCLOR 1254 (10%), Method: PREINCUBATION): active; positive
- mutagenic call (Test System: AMES SALMONELLA TYPHIMURIUM, Strain/Indicator: TA98, Metabolic Activation: HAMSTER, LIVER, S-9, AROCLOR 1254 (10%), Method: PREINCUBATION): active; positive
- mutagenic call [1]: inactive; negative
- mutagenic call (Test System: AMES SALMONELLA TYPHIMURIUM, Strain/Indicator: TA98, Metabolic Activation: RAT, LIVER, S-9, AROCLOR 1254 (10%), Method: PREINCUBATION): active; positive
- mutagenic call (Test System: AMES SALMONELLA TYPHIMURIUM, Strain/Indicator: TA100, Metabolic Activation: HAMSTER, LIVER, S-9, AROCLOR 1254 (10%), Method: PREINCUBATION): active; positive
- mutagenic call [3]: inactive; negative
- mutagenic call (Test System: AMES SALMONELLA TYPHIMURIUM, Strain/Indicator: TA100, Metabolic Activation: RAT, LIVER, S-9, AROCLOR 1254 (10%), Method: PREINCUBATION): inactive; negative
- mutagenic call (Test System: AMES SALMONELLA TYPHIMURIUM, Strain/Indicator: TA1535, Metabolic Activation: HAMSTER, LIVER, S-9, AROCLOR 1254 (10%), Method: PREINCUBATION): inactive; negative
- mutagenic call [6]: inactive; negative
- mutagenic call (Test System: AMES SALMONELLA TYPHIMURIUM, Strain/Indicator: TA1535, Metabolic Activation: RAT, LIVER, S-9, AROCLOR 1254 (10%), Method: PREINCUBATION): inactive; negative

SMILES: c1ccc(-c2ccc(CCC3CO3)cc2)cc1 (stereo not given)
- mutagenic call [3]: inactive; negative
- mutagenic call [4]: active; positive
- mutagenic call [5]: inactive; negative

SMILES: CNc1ccc2nc3ccc(=[N+](C)C)cc-3sc2c1
- mutagenic call (Test System: Ames Salmonella typhimurium, Strain/Indicator: TA98, Metabolic Activation: None, Method: Preincubation): active; positive
- mutagenic call (Test System: Ames Salmonella typhimurium, Strain/Indicator: TA98, Metabolic Activation: Rat, Liver, S-9, Aroclor 1254 (10%), Method: Preincubation): active; positive
- mutagenic call (Test System: Ames Salmonella typhimurium, Strain/Indicator: TA100, Metabolic Activation: None, Method: Preincubation): active; positive
- mutagenic call (Test System: Ames Salmonella typhimurium, Strain/Indicator: TA100, Metabolic Activation: Rat, Liver, S-9, Aroclor 1254 (10%), Method: Preincubation): active; positive
- mutagenic call (Test System: E. coli, Strain/Indicator: WPM uvrA/pKM101, Metabolic Activation: None, Method: Preincubation): active; positive
- mutagenic call (Test System: E. coli, Strain/Indicator: WPM uvrA/pKM101, Metabolic Activation: Rat, Liver, S-9, Aroclor 1254 (10%), Method: Preincubation): active; positive

SMILES: Cc1cnc2ccccc2n1
- mutagenic call [1]: inactive; negative
- mutagenic call (Test System: AMES SALMONELLA TYPHIMURIUM, Strain/Indicator: TA98, Metabolic Activation: RAT, LIVER, S-9, AROCLOR 1254, Method: PREINCUBATION): inactive; negative
- mutagenic call [3]: inactive; negative
- mutagenic call (Test System: AMES SALMONELLA TYPHIMURIUM, Strain/Indicator: TA100, Metabolic Activation: RAT, LIVER, S-9, AROCLOR 1254, Method: PREINCUBATION): inactive; negative
- mutagenic call (Test System: AMES SALMONELLA TYPHIMURIUM, Strain/Indicator: TA102, Metabolic Activation: NONE, Method: PREINCUBATION): inactive; negative
- mutagenic call (Test System: AMES SALMONELLA TYPHIMURIUM, Strain/Indicator: TA102, Metabolic Activation: RAT, LIVER, S-9, AROCLOR 1254, Method: PREINCUBATION): inactive; negative
